Measured values: patent publication US7718768B2, “Biologically active peptide [sequence]” (CMS Peptides Patent Holding Company Limited, priority 2001, dated 2010)
Marks after values point to notes of the source that are not given here. No end group written: not given here.

Columns and labels:
Assay type in all cases: in vivo, BALB/c mice
[1] = immunity organ weight test (thymus gland index, spleen index); conditions: X ± SD
Description: (§1) The above substances were all dissolved in 0.5 ml saline and injected intraperitoneal (i.p.) for 15 continuous days, once per day.
(§2) One day after the last test substance administration (day 16), the liver, spleen, and thymus gland were separated and blotted dry with filter paper and weighed. The phagocytosis index α was calculated as below: α=(^3√K)(W÷WLS) key: W: body weight WLS: weight of liver plus spleen Thymus gland index(%)=(thymus weight/body weight)×100% Spleen index(%)=(spleen weight/body weight)×100%

[2] = tested on: NK cell; test: NK cell cytotoxicity activity test (YAC-1 target cells, MTT) on spleen cells of treated mice; conditions: IFN-γ and IL-2 groups 3×10^5 IU/kg/day, X ± SD
Description: as §1
(§3) Ten mice per group. The day after the last test substance administration, the mice were sacrificed by cervical dislocation. The spleen was isolated aseptically and manually dispersed in cold D-Hank's solution using an injection needle. The dispersed cell suspension was further sieved through a 100 gauge 150 μm diameter stainless steel sieve. After centrifugation at 200 g for 10 minutes, the supernatant was discarded. The cell pellet was re-suspended in 10 volume of Tris-NH4Cl buffer and then kept standing still for 10 minutes at room temperature. The suspended cells were collected by centrifugation at 150 g for 10 minutes. The cells were washed 2-4 times with cold D-Hank's solution by re-suspending and collecting by centrifugation with condition as described above. The washed cells were then diluted to the desired cell densities by RPMI-1640 culture medium, containing 10% fetal bovine serum.
Mice spleen cells were prepared to 4×10^6/ml as described in section 1.1 above. Target cells YAC-1 were brought to log phase and adjusted to 1×10^5/ml. Using a 96 wells cell culture plate, 100 μl mouse spleen cells and 100 μl culture medium were added to the control well containing only the spleen cells; 100 μl target cells and 100 μl culture medium were added to the control well containing only target cells; 100 μl mouse spleen cells and 100 μl target cells were added to the NK activity assay well. Three parallel sets of the above were prepared per mouse.
Samples were centrifuged at 150 g for 10 minutes to collect the cells. The supernatant was discarded and 50 μl/well MTT of 1 mg/ml was added. The reaction mixture was then shaken for 2 minutes, and incubated at 37° C., 5% CO2 for 4 hours. The supernatant was discarded after centrifugation at 150 g for 10 minutes. 120 μl 40 mM HCl-2-propanol was added and shaken for 3 minutes. An ELISA reader was used to obtain OD570nm of each well referenced at 630 nm.

[3] = tested on: anti-SRBC antibody; test: Sheep Red Blood Cell (SRBC) hemolysis test, anti-SRBC antibody formation; conditions: SRBC on day 12, IFN-γ and IL-2 groups 3×10^5 IU/kg/day, X ± SD
Description: Sheep red blood cells (SRBC) were prepared by collecting blood from cervical vein and put into a sterile flask with glass beads. The flask was shaken for 3 minutes and the blood then mixed with Alsever solution (glucose 2.05 g, NaCl 0.4 g, […] 0.8 g, adjust to 100 ml with distilled water) and stored at 4° C. Immediately before use, samples were centrifuged at 130 g, 5 minutes to collect the SRBC. The cells were washed two times by re-suspension and centrifugation in normal saline. Then the cell pellet was collected by centrifugation at 180 g for 10 minutes and re-suspended in saline to make the final working SRBC suspension, 2% (v/v).
Complement was prepared by adding 10 volumes of fresh Cavy serum into one volume centrifuge packed SRBC, and then gently shaking for 30 minutes at 4° C. The SRBC was removed by centrifugation at 200 g for 10 minutes. 10 volumes of normal saline were added to obtain the working complement solution.
The test substances were administered as described in section 1.1, plus intraperitoneal injection 0.2 ml SRBC per mouse on day 12. On the day after the last test substance administration (day 16), blood was collected from the eye canthus and left at room temperature for one hour for serum exudation. After centrifugation at 200 g for 10 minutes, the serum was diluted by 500 times with normal saline.
To 1 ml diluted mouse serum of each mouse, 0.5 ml SRBC suspension was added. Ice cold. Then 1 ml working complement solution was added and incubated at 37° C. water bath for 10 minutes. Reactions were terminated by ice cold. Samples were then centrifuged at 200 g for 10 minutes to obtain the supernatant.
To 1 ml of this supernatant, 3 ml Drabkin solution was added and left at room temperature for 10 minutes. OD540nm was obtained.
Reference OD540nm was obtained by mixing 0.25 ml SRBC suspension with Drabkin solution to 4 ml and placed at room temperature for 10 minutes before OD540nm was taken. Sample serum index=(OD540nm of test sample[…]reference OD540nm)×500 3. The Effect of Peptides on the Phagocytosis Function of Mononuclear Phagocyte and the Weight of Immune Organ^[8,9].

[4] = tested on: T lymphocyte; test: T lymphocyte IL-2 secretion test (HT-2 cell bioassay of ConA supernatant); conditions: IFN-γ and IL-2 groups 3×10^5 IU/kg/day, X ± SD
Description: as §1
(§4) Spleen cells of density 1×10^6/ml were placed onto a 96 wells cell culture plate, 100 μl/well, three parallel wells each of the assay sample and control sample per mouse. To the assay wells, 100 μl/well ConA of 100 μg/ml in RPMI-1640 was added, and 100 μl/well plain RPMI-1640 was used for the controls. The cells were incubated for 66 hrs at 37° C., 5% CO2. The cells were then pelleted by centrifugation at 150 g for 10 minutes.
HT-2 cells at log phase were collected by centrifugation at 150 g for 10 minutes, and washed three times with cold Hank's solution by re-suspension and centrifugation. The collected HT-2 cells were re-suspended in RPMI-1640 and incubated at 37° C., 5% CO2 for 30 minutes. The cells were further washed twice with RPMI-1640 by re-suspension and centrifugation, and re-suspended to final concentration of 2×10^5/ml with RPMI-1640.
rIL-2 was diluted to the following concentration with RPMI-1640: 500 IU/ml, 250 IU/ml, 125 IU/ml, 62.5 IU/ml, 31.25 IU/ml, and […].
A 96 well cell culture plate was set up with three parallel wells per combination:
Negative control: 100 μl RPMI-1640+100 μl HT-2 cell suspension
rIL-2 standard: 100 μl rIL-2 solution+100 μl HT-2 cell suspension
Assay well: 100 μl diluted supernatant+100 μl HT-2 cell suspension
The plate was incubated at 37° C., 5% CO2 for 68 hours, then centrifuged at 150 g for 15 minutes and the supernatant removed. 100 μl 0.5 mg/ml MTT in RPMI-1640 without phenolsulfonphthalein was added into each well. After shaking for 3-4 minutes to re-suspend the cells, continue to incubate for another 4 hours. Samples were then centrifuged at 150 g for 15 minutes and the supernatant was removed. To each well, 120 μl 40 mM HCl-2-propanol was added, mixed for 3-4 minutes and OD analyzed at 570 nm, referenced at 630 nm with an ELISA plate reader.
The average OD of the three parallel wells of each dilution was taken and plotted against concentration on a semi-log paper, concentration on the X-axis. The concentration at 50% OD saturation was obtained for both the testing supernatant and rIL-2.

[5] = tested on: T lymphocyte; test: T lymphocyte transformation test (ConA, MTT) on spleen cells of treated mice; design: key: OD of assay wells divided by OD of control wells; conditions: IFN-γ and IL-2 groups 3×10^5 IU/kg/day, X ± SD
Description: as §1, §3, §4
50 μl/well MTT of 1 mg/ml in RPMI-1640 was added to the cell pellet and the cells re-suspended by shaking for 2 minutes. The incubation was continued for 4 hours. The supernatant was discarded after centrifugation at 150 g for 10 minutes. 120 μl 40 mM HCl-2-propanol was added to the cell pellet and shaken for 3 minutes. to obtain OD570nm of each well referenced at 630 nm. An ELISA reader was used
Each mouse formed three assay wells and three control wells. The Stimulation Index (SI) of each mouse was obtained by first deriving the average OD of the three parallel wells, then dividing the value of the assay wells by the control wells.

[6] = tested on: mononuclear phagocyte; test: carbon particle clearance test, phagocytotic activity of mononuclear phagocyte; design: key: α = (cube root of K)×(body weight ÷ liver+spleen weight); conditions: peptide 0.5 μg/kg/day i.p. 15 days; IFN-γ and IL-2 groups 3×10^5 IU/kg/day; X ± SD
Description: On the next day after the last test substance administration (day 16), the mice were injected with […] body weight India ink (5 times dilution with normal saline) from the tail vein.
One minute and five minutes after Indian ink injection, 20 μl blood was obtained from the eye can thus with a heparinized tubing. The blood was mixed with 2 ml 0.1% w/v Na2CO3 and then OD680nm obtained. The outline clear index K was calculated by the following formula: K=(lgA1−lgA2)÷(t2−t1) Key: A1: OD680nm at first minute A2: OD680nm at fifth minute t2: 5 minutes […]
as §2

[7] = peptide 5 μg/kg/day i.p. 15 days, IFN-γ and IL-2 groups 3×10^5 IU/kg/day
[8] = peptide 50 μg/kg/day i.p. 15 days, IFN-γ and IL-2 groups 3×10^5 IU/kg/day
[9] = peptide 500 μg/kg/day i.p. 15 days
[10] = peptide 0.5 μg/kg/day i.p. 15 days
[11] = peptide 5 μg/kg/day i.p. 15 days
[12] = peptide 50 μg/kg/day i.p. 15 days
[13] = peptide 500 μg/kg/day i.p. 15 days, IFN-γ and IL-2 groups 3×10^5 IU/kg/day
[14] = peptide 0.5 μg/kg/day i.p. 15 days, IFN-γ and IL-2 groups 3×10^5 IU/kg/day

Row | Substance | weight of thymus gland (thymus gland index) [1, 7] | weight of thymus gland (thymus gland index) [1, 8] | weight of spleen (spleen index) [1, 9] | NK cell cytotoxic activity (NK cell activity index) [2, 9] | anti-SRBC antibody formation (sample serum index) [3, 10] | anti-SRBC antibody formation (sample serum index) [3, 11] | anti-SRBC antibody formation (sample serum index) [3, 12] | anti-SRBC antibody formation (sample serum index) [3, 9] | activity of T lymphocyte in secreting IL-2 [4, 11] | activity of T lymphocyte in secreting IL-2 [4, 9] | stimulation index (T lymphocyte transformation) [5, 11] | stimulation index (T lymphocyte transformation) [5, 9] | weight of spleen (spleen index) [1, 8] | weight of thymus gland (thymus gland index) [1, 13] | phagocytotic index [6] | weight of thymus gland (thymus gland index) [1, 14] | NK cell cytotoxic activity (NK cell activity index) [2, 12] | NK cell cytotoxic activity (NK cell activity index) [2, 10] | stimulation index (T lymphocyte transformation) [5, 12]
1 | Ala Ala Phe [CMS023] | 0.23 ± 0.06 % | 0.20 ± 0.02*^@^ % | 0.36 ± 0.06 % | 79 ± 12 % | 108 ± 21*^@^ Unit | 166 ± 27*^@^ Unit | 84 ± 11*^@^ Unit | 110 ± 45*^@^ Unit | – | – | – | – | – | – | – | – | – | – | –
2 | Ala Gly Asp Asp Ala Pro Arg Ala Val Phe (AGDDAPRAVF; listed as Sus scrofa) [CMS007] | – | – | 0.32 ± 0.05 % | – | – | 122 ± 12*^@^ Unit | – | 69 ± 17*^@ Unit | 64 ± 12 IU | 86 ± 15*^ IU | 1.7 ± 0.1 | 1.6 ± 0.1 | – | – | – | – | – | – | –
3 | Phe Asn Glu Glu (FNEE; listed as Sus scrofa) [CMS029] | 0.21 ± 0.03 % | 0.18 ± 0.05 % | – | 87 ± 4 % | 18 ± 7* Unit | 147 ± 23*^@^ Unit | 143 ± 13*^@^ Unit | 115 ± 22*^@^ Unit | – | – | – | 1.7 ± 0.3 | 0.42 ± 0.04 % | 0.22 ± 0.04*^@^ % | – | – | – | – | –
4 | Phe Glu Glu Asn Met (FEENM; listed as Sus scrofa) [CMS027] | – | 0.21 ± 0.03*^@^ % | 0.37 ± 0.03 % | 88 ± 8 % | 99 ± 14*^@^ Unit | 117 ± 45*^@^ Unit | 93 ± 11*^@^ Unit | – | – | – | – | – | – | 0.20 ± 0.03*^ % | 6.4 ± 0.6 | – | – | – | –
5 | Phe Glu Ser Phe (FESF; listed as Sus scrofa) [CMS033] | 0.20 ± 0.02 % | 0.18 ± 0.03 % | – | 89 ± 8 % | 78 ± 12*^@ Unit | 128 ± 39*^@^ Unit | 112 ± 15*^@^ Unit | 143 ± 27*^@^ Unit | – | – | – | – | – | 0.25 ± 0.04*^@^ % | – | – | – | – | –
6 | TTYNSIM [CMS026] | 0.31 ± 0.05*^@^ % | 0.27 ± 0.02*^@^ % | – | 89 ± 7 % | 19 ± 6* Unit | 191 ± 17*^@^ Unit | 98 ± 9*^@^ Unit | – | – | – | – | – | – | 0.20 ± 0.03*^ % | – | 0.21 ± 0.05 % | 76 ± 9 % | – | –
7 | VVYPWTQRF [CMS002] | 0.24 ± 0.05*^ % | 0.21 ± 0.02*^@^ % | – | – | 4 ± 1* Unit | – | – | 87 ± 18*^@ Unit | – | – | – | 1.8 ± 0.3 | – | – | – | 0.26 ± 0.06*^@^ % | – | 76 ± 9 % | 2.6 ± 0.3*^@^
